Values after ≈ are worked out from the molar mass of the structure shown.
Columns and labels:
[1] = Human intrinsic and hepatic clearance; type: in vitro ADME
[2] = Rat intrinsic and hepatic clearance; type: in vitro ADME
[3] = Kinetic solubility; type: physicochemical; details: kinetic from dmso stock
[4] = Brain-plasma partition; type: in vivo; details: rat; for unbound brain-to-plasma partition coefficient (Kp,uu): unbound brain-plasma ratio, read-out: Brain-Plasma Kp,ω
[5] = Human plasma fraction unbound; type: in vitro ADME; details: read-out: Human Fu Plasma
[6] = Rat brain fraction unbound; type: in vitro ADME; details: read-out: Rat Fu Brain
[7] = Rat plasma fraction unbound; type: in vitro ADME; details: read-out: Rat Fu Plasma
[8] = target: 2C9 (Homo sapiens (Human), UniProt P11712); test: CYP 2C9 inhibition; type: in vitro ADME
Sequence of 2C9 (P11712 whole entry): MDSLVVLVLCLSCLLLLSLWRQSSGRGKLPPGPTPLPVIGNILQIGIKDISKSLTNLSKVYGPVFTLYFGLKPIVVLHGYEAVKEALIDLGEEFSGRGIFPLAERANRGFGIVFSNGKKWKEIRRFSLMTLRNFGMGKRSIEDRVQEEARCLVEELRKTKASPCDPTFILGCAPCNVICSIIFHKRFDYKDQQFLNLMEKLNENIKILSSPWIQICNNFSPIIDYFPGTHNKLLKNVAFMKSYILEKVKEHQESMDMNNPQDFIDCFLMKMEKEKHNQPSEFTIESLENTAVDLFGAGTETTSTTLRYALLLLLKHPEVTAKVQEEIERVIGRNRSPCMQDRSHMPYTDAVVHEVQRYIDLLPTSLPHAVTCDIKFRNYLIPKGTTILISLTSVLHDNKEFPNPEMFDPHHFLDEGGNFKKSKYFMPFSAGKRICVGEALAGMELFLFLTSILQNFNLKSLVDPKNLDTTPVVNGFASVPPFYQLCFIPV

[9] = target: 3A4 (Homo sapiens (Human), UniProt P08684); test: CYP 3A4 inhibition; type: in vitro ADME
Sequence of 3A4 (P08684 whole entry): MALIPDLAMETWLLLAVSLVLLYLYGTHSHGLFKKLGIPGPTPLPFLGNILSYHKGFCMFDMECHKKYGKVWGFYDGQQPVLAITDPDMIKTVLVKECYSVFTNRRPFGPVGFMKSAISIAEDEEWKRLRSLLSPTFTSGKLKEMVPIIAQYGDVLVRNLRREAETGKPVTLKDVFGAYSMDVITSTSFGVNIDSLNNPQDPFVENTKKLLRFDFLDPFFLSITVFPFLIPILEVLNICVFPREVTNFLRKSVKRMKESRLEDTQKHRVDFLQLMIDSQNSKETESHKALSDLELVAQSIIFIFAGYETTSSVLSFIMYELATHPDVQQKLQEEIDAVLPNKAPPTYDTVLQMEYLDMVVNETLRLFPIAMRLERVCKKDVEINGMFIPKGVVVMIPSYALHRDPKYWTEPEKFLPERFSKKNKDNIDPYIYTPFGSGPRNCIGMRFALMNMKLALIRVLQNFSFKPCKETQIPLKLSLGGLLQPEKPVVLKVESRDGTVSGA

[10] = target: 1A2 (Homo sapiens (Human), UniProt P05177); test: CYP 1A2 inhibition; type: in vitro ADME
Sequence of 1A2 (P05177 whole entry): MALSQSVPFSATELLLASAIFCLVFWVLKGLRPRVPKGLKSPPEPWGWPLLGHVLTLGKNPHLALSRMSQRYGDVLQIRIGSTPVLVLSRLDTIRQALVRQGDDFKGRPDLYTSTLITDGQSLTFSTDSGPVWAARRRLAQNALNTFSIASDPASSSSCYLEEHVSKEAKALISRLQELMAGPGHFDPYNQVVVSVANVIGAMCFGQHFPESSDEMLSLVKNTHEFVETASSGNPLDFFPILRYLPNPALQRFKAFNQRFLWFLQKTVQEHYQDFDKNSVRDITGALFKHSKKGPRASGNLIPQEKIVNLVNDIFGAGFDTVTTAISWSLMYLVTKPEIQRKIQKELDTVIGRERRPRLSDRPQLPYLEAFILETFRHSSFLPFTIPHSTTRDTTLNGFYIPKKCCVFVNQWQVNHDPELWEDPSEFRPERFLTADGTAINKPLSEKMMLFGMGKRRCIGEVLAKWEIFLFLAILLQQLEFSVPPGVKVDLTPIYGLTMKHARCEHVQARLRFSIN

[11] = target: 2D6 (Homo sapiens (Human), UniProt P10635); test: CYP 2D6 inhibition; type: in vitro ADME
Sequence of 2D6 (P10635 whole entry): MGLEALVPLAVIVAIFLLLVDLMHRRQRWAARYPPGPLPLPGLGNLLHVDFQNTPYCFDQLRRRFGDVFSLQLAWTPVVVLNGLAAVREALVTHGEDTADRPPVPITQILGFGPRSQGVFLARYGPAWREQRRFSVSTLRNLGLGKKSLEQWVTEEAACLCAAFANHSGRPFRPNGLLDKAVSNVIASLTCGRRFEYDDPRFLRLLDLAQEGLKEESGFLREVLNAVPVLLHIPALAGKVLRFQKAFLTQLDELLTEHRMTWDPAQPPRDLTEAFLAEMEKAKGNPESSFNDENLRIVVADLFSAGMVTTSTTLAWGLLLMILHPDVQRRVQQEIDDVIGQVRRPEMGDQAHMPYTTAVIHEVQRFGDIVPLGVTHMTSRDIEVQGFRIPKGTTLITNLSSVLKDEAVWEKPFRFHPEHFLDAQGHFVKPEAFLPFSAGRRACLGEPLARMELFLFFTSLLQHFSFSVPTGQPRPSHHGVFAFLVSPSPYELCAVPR

Row | SMILES | CLint scaled [1] [mL/min/kg] | Human CLhep [1] [mL/min/kg] | CLint scaled [2] [mL/min/kg] | Rat CLhep [2] [mL/min/kg] | solubility kinetic [3] [µM] | Kp [4] | unbound brain-to-plasma partition coefficient (Kp,uu) [4] | fraction unbound [5] | fraction unbound [6] | fraction unbound [7] | IC50 [8] [µM] | IC50 [9] [µM] | IC50 [10] [µM] | IC50 [11] [µM]
1 | COCCOc1nccc2cc(Nc3n[nH]c4ccccc34)ccc12 [Compound 98] | 30 | 12.4 | 216 | 52.9 | 1.6 ± 0.2 (≈ 0.535 µg/mL) |  |  |  |  |  |  |  |  | 
2 | Fc1cnc2[nH]nc(Nc3ccc4c(OC5CCOCC5)nccc4c3)c2c1 [Compound 99] | 36.8 | 13.4 | 227 | 53.5 | 0.7 ± 0.2 (≈ 0.266 µg/mL) |  |  |  |  |  |  |  |  | 
3 | CO[C@H](C)COc1nccc2cc(Nc3n[nH]c4ncccc34)ccc12 [Compound 78] |  |  |  |  |  | 0.99 | 0.09 | 0.023 | 0.004 | 0.042 |  |  |  | 
4 | CCOCCOc1nccc2cc(Nc3n[nH]c4cccnc34)ccc12 [Compound 69] |  |  |  |  | 9.9 ± 2.7 (≈ 3.46 µg/mL) | 1.23 | 0.27 | 0.017 | 0.005 | 0.023 |  |  |  | 
5 | C[C@H]1OCC[C@H]1Oc1nccc2cc(Nc3n[nH]c4cccnc34)ccc12 [Compound 91] | 109 | 17.6 | 377 | 59.0 | 3.3 ± 0.2 (≈ 1.19 µg/mL) |  |  |  |  |  |  |  |  | 
6 | Fc1cnc2c(Nc3ccc4c(OCC5COCCO5)nccc4c3)n[nH]c2c1 (stereo not shown) [Compound 100] | 46.1 | 14.4 | 156 | 48.3 | 1.1 ± 0.6 (≈ 0.435 µg/mL) |  |  |  |  |  |  |  |  | 
7 | COCCOc1nccc2cc(Nc3n[nH]c4cc(F)cnc34)ccc12 [Compound 97] | 96.8 | 17.3 | 161 | 48.8 | 1 ± 0.1 (≈ 0.353 µg/mL) |  |  |  |  |  |  |  |  | 
8 | c1cc2cc(Nc3n[nH]c4nccnc34)ccc2c(OCC2CCOCC2)n1 [Compound 82] | 67.6 | 15.4 | 154 | 48.1 | 0.5 ± 0.2 (≈ 0.188 µg/mL) | 0.47 | 0.09 | 0.02 | 0.004 | 0.02 |  |  |  | 
9 | c1cnc2c(Nc3ccc4c(OCC5CCOCC5)nccc4c3)n[nH]c2c1 [Compound 68] |  |  |  |  |  | 1.06 | 0.12 | 0.008 | 0.001 | 0.009 |  |  |  | 
10 | COCCOc1nccc2cc(Nc3n[nH]c4ncc(F)cc34)ccc12 [Compound 96] | 37 | 13.4 | 327 | 57.7 | 0.3 ± 0.2 (≈ 0.106 µg/mL) |  |  |  |  |  |  |  |  | 
11 | C[C@H]1OCC[C@H]1Oc1nccc2cc(Nc3n[nH]c4ncccc34)ccc12 [Compound 92] | 129 | 18.1 | 518 | 61.7 | 0.9 ± 0.2 (≈ 0.325 µg/mL) |  |  |  |  |  |  |  |  | 
12 | c1cnc2[nH]nc(Nc3ccc4c(OCC5CCCCO5)nccc4c3)c2c1 (stereo not shown) [Compound 76] |  |  |  |  |  | 1.27 | 0.13 | 0.008 | 0.001 | 0.01 |  |  |  | 
13 | CCOCCOc1nccc2cc(Nc3n[nH]c4ncccc34)ccc12 [Compound 75] | 71.8 | 16.2 | 456 | 60.7 |  | 1 | 0.13 | 0.021 | 0.004 | 0.031 |  |  |  | 
14 | c1cnc2c(Nc3ccc4c(OCCN5CCOCC5)nccc4c3)n[nH]c2c1 [Compound 93] | 136 | 18.2 | 718 | 63.8 | 20.5 ± 2.1 (≈ 8 µg/mL) |  |  |  |  |  |  |  |  | 
15 | C[C@@H]1C[C@H](Oc2nccc3cc(Nc4n[nH]c5cccnc45)ccc23)CO1 [Compound 89] | 37.8 | 13.5 | 204 | 52.1 | 2.7 ± 0.4 (≈ 0.976 µg/mL) |  |  |  |  |  |  |  |  | 
16 | c1cnc2c(Nc3ccc4c(OCC5CCCOC5)nccc4c3)n[nH]c2c1 (stereo not shown) [Compound 72] | 55.7 | 15.2 | 273 | 55.7 |  | 0.52 | 0.13 | 0.009 | 0.002 | 0.008 | 3.15 | 22.7 | 12.9 | 24.6
17 | c1cnc2[nH]nc(Nc3ccc4c(OCC5CCOCC5)nccc4c3)c2c1 [Compound 77] |  |  |  |  |  | 1.59 | 0.4 | 0.013 | 0.002 | 0.008 |  |  |  | 
18 | c1cnc2c(Nc3ccc4c(O[C@@H]5CCOC5)nccc4c3)n[nH]c2c1 [Compound 63] | 57.8 | 15.4 | 181 | 50.5 |  | 1.27 | 0.18 | 0.018 | 0.005 | 0.036 | 13.3 | 22.3 | 3.96 | > 30
19 | c1cnc2[nH]nc(Nc3ccc4c(OCCN5CCOCC5)nccc4c3)c2c1 [Compound 94] | 87.6 | 16.9 | 923 | 65.1 | 15.2 ± 1.5 (≈ 5.93 µg/mL) |  |  |  |  |  |  |  |  | 
20 | c1cnc2[nH]nc(Nc3ccc4c(O[C@@H]5CCOC5)nccc4c3)c2c1 [Compound 65] |  |  |  |  |  | 1.28 | 0.09 | 0.028 | 0.003 | 0.043 |  |  |  | 
21 | c1cc2cc(Nc3n[nH]c4nccnc34)ccc2c(O[C@H]2CCOC2)n1 [Compound 59] |  |  |  |  | 2.6 ± 1.6 (≈ 0.906 µg/mL) |  |  |  |  |  |  |  |  | 
22 | Fc1cnc2c(Nc3ccc4c(O[C@H]5CCOC5)nccc4c3)n[nH]c2c1 [Compound 95] | 40.3 | 13.6 | 127 | 45.1 | 0.4 (≈ 0.146 µg/mL) |  |  |  |  |  |  |  |  | 
23 | CO[C@H](C)COc1nccc2cc(Nc3n[nH]c4nccnc34)ccc12 [Compound 84] | 75.3 | 16.4 | 145 | 47.2 |  | 1.11 | 0.33 | 0.019 | 0.008 | 0.027 |  |  |  | 
24 | c1cnc2[nH]nc(Nc3ccc4c(OCC5CCOC5)nccc4c3)c2c1 (stereo not shown) [Compound 79] |  |  |  |  | < 0.4 | 1.5 | 0.16 | 0.018 | 0.002 | 0.019 |  |  |  | 
25 | c1cnc2c(Nc3ccc4c(OCC5CCOC5)nccc4c3)n[nH]c2c1 (stereo not shown) [Compound 71] | 41.1 | 13.9 | 151 | 47.8 |  | 0.8 | 0.1 | 0.015 | 0.003 | 0.024 | 4.59 | 15.4 | 8.48 | 19.7
